# From patent US20250368652A1, “MICROBIOCIDAL BICYCLIC HETEROCYCLIC CARBOXAMIDE DERIVATIVES” (SYNGENTA CROP PROTECTION AG, priority 2022, published 2025)
# Experiments:
# [1] = system: Magnaporthe grisea (Pyricularia oryzae); format: in vivo; conditions: 200 ppm; rice leaf segments cv. Ballila, preventative, inoculated 2 days after application; compared to untreated control
# [2] = system: Phytophthora infestans; format: in vivo; conditions: 200 ppm; tomato leaf disks, preventative, inoculated 1 day after application; compared to untreated control
# [3] = system: Botryotinia fuckeliana (Botrytis cinerea); assay: Botryotinia fuckeliana (Botrytis cinerea) / liquid culture (gray mould); format: cell-based; conditions: liquid culture (Vogels broth), growth inhibition photometrically 3-4 days after application, compared to untreated control
# Protocol: (§1) Mycelia fragments or conidia suspensions of a fungus prepared either freshly from liquid cultures of the fungus or from cryogenic storage, are directly mixed into nutrient broth. DMSO solutions of the test compound (max. 10 mg/mL) are diluted with 0.025% Tween20 by a factor of 50 and 10 μL of this solution is pipetted into a microtiter plate (96-well format). The nutrient broth containing the fungal spores/mycelia fragments is then added to give an end concentration of the tested compound. The test plates are incubated in the dark at 24° C. and 96% relative humidity. The inhibition of fungal growth is determined photometrically after 2 to 7 days, depending on the pathosystem, and percent antifungal activity relative to the untreated check is calculated. Conidia of the fungus from cryogenic storage are directly mixed into nutrient broth (Vogels broth). After placing a (DMSO) solution of test compound into a microtiter plate (96-well format), the nutrient broth containing the fungal spores is added. The test plates are incubated at 24° C. and the inhibition of growth is determined photometrically 3-4 days after application.
# [4] = system: Pyrenophora teres; assay: Pyrenophora teres / barley / leaf disc preventative (net blotch); format: in vivo; conditions: 200 ppm, barley leaf segments cv. Hasso, inoculated 2 days after application, compared to untreated control
# [5] = system: Glomerella lagenarium (Colletotrichum lagenarium); assay: Glomerella lagenarium (Colletotrichum lagenarium) / liquid culture (anthracnose); format: cell-based; conditions: Colletotrichum orbiculare, liquid culture (PDB), growth inhibition photometrically 3-4 days after application, compared to untreated control
# Protocol: as §1, with “nutrient broth (PDB potato dextrose broth). After” for “nutrient broth (Vogels broth). After”, “growth is measured photometrically 3-4” for “growth is determined photometrically 3-4”
# [6] = system: Alternaria solani; assay: Alternaria solani / tomato / leaf disc (early blight); format: in vivo; conditions: 200 ppm; tomato leaf disks cv. Baby, inoculated 2 days after application; compared to untreated control
# Protocol: Leaf disks or leaf segments of various plant species are cut from plants grown in a greenhouse. The cut leaf disks or segments are placed in multiwell plates (24-well format) onto water agar. The leaf disks are sprayed with a test solution before (preventative) or after (curative) inoculation. Compounds to be tested are prepared as DMSO solutions (max. 10 mg/mL) which are diluted to the appropriate concentration with 0.025% Tween20 just before spraying. The inoculated leaf disks or segments are incubated under defined conditions (temperature, relative humidity, light, etc.) according to the respective test system. A single evaluation of disease level is carried out 3 to 14 days after inoculation, depending on the pathosystem. Percent disease control relative to the untreated check leaf disks or segments is then calculated. Tomato leaf disks cv. Baby are placed on agar in multiwell plates (24-well format) and sprayed with the formulated test compound diluted in water. The leaf disks are inoculated with a spore suspension of the fungus 2 days after application. The inoculated leaf disks are incubated at 23° C./21° C.
Compound,control of Magnaporthe grisea [1],control of Phytophthora infestans [2],inhibition of growth at 20 ppm [3] [%],control of Pyrenophora teres [4],inhibition of growth at 20 ppm [5] [%],control of Alternaria solani [6]
"O=C(NCC(F)c1ccc(Cl)cc1Cl)c1c(Oc2cccc(C3CC3)c2)cnc2c(Cl)cnn12 (racemic) [Compound P-1.9, 3-chloro-6-(3-cyclopropylphenoxy)-N-[2-(2,4-dichlorophenyl)-2-fluoro-ethyl]pyrazolo[1,5-a]pyrimidine-7-carboxamide]",at least 80%,at least 80%,≥ 80,–,–,–
"Cc1cc2ncc(Oc3cccc(C4CC4)c3)c(C(=O)NCC(F)c3ccc(Cl)cc3Cl)n2n1 (stereo not shown) [Compound P-1.13, 6-(3-cyclopropylphenoxy)-N-[2-(2,4-dichlorophenyl)-2-fluoro-ethyl]-2-methyl-pyrazolo[1,5-a]pyrimidine-7-carboxamide]",–,–,≥ 80,at least 80%,≥ 80,at least 80%
